Measurements reported in patent publication US10391101B2, “Derivatives of 7-fluoro-8-chloro-5H-dibenzo [B,E,] [1,4] diazepine and use thereof” (VALENTEK LLC, priority 2014, dated 2019).

Columns and labels:
[1] = Leucht et al., Lancet 2013; cited from earlier work
[2] = Sub-chronic toxicity, morphological parameters of blood (neutrophil kinetics); type: in vivo; details: rats, intragastric 5 mg/kg daily for 28 days
Description: The positive effect of the introduction of fluorine has been observed in pre-clinical studies of sub-chronic toxicity. […]. Increase in the number of neutrophils has been observed among rats after administration of aminoglutethimide, which also involves a high risk of agranulocytosis (Ng, W. et. al., Chem Res Toxicol, 2013, 26, 1272-81). Thus changes in the kinetics of neutrophils after intake of the medication can serve as a biomarker to predict the risk of agranulocytosis.
The neutrophil kinetics has been studied within comparative tests of sub-chronic toxicity. Studies have been conducted using rats upon intragastric administration of the substance at a dose of 5 mg/kg. The test substances were administered daily for 28 days. Each experimental group was composed of 10 animals of each sex.

[3] = 5-oxytriptophan hyperkinesia (head twitches); type: in vivo; details: mice, intragastric 1.0-10.0 mg/kg, 5-oxytriptophan 300 mg/kg i.p.
Description: It is known that the precursor of serotonin (5-oxytriptophan, 5-OT) causes a specific hyperkinesia in mice in the form of head-twitching with average duration of 30-60 minutes, which is explained by the activation of serotonergic system of the CNS. […] Each experimental group included 10 male mice weighing 20-22 g. The test substances were administered intragastrically at 1.0, 2.5, 5.0 and 10.0 mg/kg 30 minutes before the intraperitoneal administration of 5-oxytriptophan at a dose of 300 mg/kg. We counted the number of head twitches per 1 minute at intervals of 10 minutes during 60 minutes.

[4] = cited from earlier work
[5] = Sedation study, total distance traveled; details: CF-1 mice
H1 receptor = H1 receptor (Homo sapiens, UniProt P35367); test: H1 histamine receptor functional experiment, antagonism set-up (Fluo-4 NW Ca2+ fluorescence); type: cell-based
Description: (§1) The functional activity of compounds on the H4 receptor was determined according to the change in the cell conductibility induced by redistribution of intracellular calcium. The activity for H1 receptor was determined according to the fluorescence of Fluo-4 NW indicator introduced into cells induced by the change in Ca2+ ion concentration in the cytosol.
(§2) Functional experiments were performed in the set-up of agonism and antagonism. In the set-up of agonism the test substance was added directly to the cells expressing the receptor and was determined as the dependence of the response intensity on the substance concentration. Concentration at which the half-peak response (EC50) could be reached served as a measure of activity of agonists.
(§3) In the set-up of antagonism, the ability of test substances to block the action of agonists was assessed. For this purpose, cells were incubated with the test substances, then the reference agonists were added in the system and the functional response was determined.

H4 receptor = H4 receptor (Homo sapiens, UniProt Q9H3N8); test: H4 histamine receptor functional experiment, agonism set-up (cell conductibility); type: cell-based
Description: as §1, §2, §3

D2 dopamine receptors = D2 dopamine receptors (Homo sapiens, UniProt P14416); test: cell-based; details: determined by IC50 values in the set-up of antagonism
Description: (§4) The response on cells expressing D2 receptors was determined according to the change in the cell conductibility induced by redistribution of intracellular calcium. For D4 receptor the level of second messenger—cAMP was taken as the criterion.

D4 dopamine receptors = molecular target: T1, D4 dopamine receptors (Homo sapiens, UniProt P21917); test: D4 dopamine receptor antagonism, Kb from IC50 (cAMP level); type: cell-based; details: for Kb: determined by IC50 values in the set-up of antagonism; for Therapeutic window (Kb, D2/Kb, D4): ratio of the applicant's Kb values
T1 sequence (P21917 1-419): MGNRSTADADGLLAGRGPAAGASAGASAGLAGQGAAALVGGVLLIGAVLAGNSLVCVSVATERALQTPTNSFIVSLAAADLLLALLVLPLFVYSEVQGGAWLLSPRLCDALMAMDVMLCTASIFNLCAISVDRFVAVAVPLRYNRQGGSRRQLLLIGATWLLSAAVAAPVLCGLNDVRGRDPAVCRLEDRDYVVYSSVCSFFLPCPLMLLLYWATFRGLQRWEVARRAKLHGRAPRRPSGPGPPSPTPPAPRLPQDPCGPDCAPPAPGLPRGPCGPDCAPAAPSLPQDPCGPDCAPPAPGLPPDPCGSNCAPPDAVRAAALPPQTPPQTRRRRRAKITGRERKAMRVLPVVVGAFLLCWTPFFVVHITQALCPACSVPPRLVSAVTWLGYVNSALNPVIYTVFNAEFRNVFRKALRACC
Description: as §4

M4 muscarinic receptor = molecular target: T2, M4 muscarinic receptor (Homo sapiens, UniProt P08173); test: cell-based
T2 sequence (P08173 1-479): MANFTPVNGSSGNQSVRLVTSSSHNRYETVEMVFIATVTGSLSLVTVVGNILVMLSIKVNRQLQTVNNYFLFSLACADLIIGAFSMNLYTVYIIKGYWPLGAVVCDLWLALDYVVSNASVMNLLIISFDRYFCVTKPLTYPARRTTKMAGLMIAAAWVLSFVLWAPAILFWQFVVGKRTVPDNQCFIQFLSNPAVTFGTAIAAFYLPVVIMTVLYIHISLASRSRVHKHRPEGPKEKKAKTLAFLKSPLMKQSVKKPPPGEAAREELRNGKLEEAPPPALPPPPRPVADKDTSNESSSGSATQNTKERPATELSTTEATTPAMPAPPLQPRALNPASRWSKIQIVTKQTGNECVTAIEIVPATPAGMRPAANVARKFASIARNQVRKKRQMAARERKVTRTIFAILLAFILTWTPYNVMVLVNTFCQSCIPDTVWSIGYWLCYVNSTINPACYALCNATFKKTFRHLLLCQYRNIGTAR
Description: as §2, §3
The curves of dependence of functional response on the concentration of compounds for the receptor were made; the level of second messenger—cAMP determined according to the fluorescence after the lysis of cell expressing the receptor was taken as a criterion.

M1 receptors = molecular target: T3, M1 receptors (Homo sapiens, UniProt P11229); test: M1 receptor activation functional study (Fluo-4 NW Ca2+ fluorescence); type: cell-based; details: concentration-response curves, FIG. 2
T3 sequence (P11229 1-460): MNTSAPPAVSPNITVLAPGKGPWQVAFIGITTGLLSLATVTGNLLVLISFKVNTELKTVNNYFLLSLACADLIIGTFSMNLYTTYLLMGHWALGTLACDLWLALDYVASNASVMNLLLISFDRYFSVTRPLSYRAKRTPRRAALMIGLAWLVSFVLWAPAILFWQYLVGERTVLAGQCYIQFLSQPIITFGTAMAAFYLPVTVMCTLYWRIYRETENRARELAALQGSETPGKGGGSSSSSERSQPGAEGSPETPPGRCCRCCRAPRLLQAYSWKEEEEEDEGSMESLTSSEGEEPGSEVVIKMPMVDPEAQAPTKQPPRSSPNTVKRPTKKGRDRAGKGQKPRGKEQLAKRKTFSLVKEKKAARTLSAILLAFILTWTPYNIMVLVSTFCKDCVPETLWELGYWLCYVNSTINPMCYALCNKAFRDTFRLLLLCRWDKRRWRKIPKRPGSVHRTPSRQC
Description: The activity was determined according to the fluorescence of Fluo-4 NW indicator introduced into cells induced by the change in Ca2+ ion concentration in the cytosol.

[6] = test system: family of adrenergic receptors; test: Panel of G-protein-coupled receptors, adrenergic receptors; details: GPCR panel
Description: In conjunction with the results of preliminary toxicological studies, the data indicates a reduction in the risk of autonomic dysfunctions, such as tachysystole, orthostatism, accommodation disorder, dysfunction of gastrointestinal tract and urination, weight gain, lack of coordination of muscle movements.

[7] = Metabolism and distribution of fluoroclozapine in tissues; details: rats, single oral fluoroclozapine 10 mg/kg

Sequence of H1 receptor (P35367 whole entry): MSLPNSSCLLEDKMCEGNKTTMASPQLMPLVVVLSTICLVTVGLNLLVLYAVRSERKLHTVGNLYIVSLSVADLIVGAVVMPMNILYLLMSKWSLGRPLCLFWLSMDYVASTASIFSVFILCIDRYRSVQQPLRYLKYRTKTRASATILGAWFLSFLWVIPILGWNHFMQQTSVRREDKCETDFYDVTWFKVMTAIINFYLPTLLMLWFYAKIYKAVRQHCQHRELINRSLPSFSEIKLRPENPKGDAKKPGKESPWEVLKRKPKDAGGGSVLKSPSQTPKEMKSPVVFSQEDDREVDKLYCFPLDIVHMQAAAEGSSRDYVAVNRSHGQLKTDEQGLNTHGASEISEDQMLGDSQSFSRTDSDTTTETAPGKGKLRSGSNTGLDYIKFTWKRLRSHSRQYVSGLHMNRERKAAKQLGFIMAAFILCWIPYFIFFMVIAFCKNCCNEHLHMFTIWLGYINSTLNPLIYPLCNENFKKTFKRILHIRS
Sequence of H4 receptor (Q9H3N8 whole entry): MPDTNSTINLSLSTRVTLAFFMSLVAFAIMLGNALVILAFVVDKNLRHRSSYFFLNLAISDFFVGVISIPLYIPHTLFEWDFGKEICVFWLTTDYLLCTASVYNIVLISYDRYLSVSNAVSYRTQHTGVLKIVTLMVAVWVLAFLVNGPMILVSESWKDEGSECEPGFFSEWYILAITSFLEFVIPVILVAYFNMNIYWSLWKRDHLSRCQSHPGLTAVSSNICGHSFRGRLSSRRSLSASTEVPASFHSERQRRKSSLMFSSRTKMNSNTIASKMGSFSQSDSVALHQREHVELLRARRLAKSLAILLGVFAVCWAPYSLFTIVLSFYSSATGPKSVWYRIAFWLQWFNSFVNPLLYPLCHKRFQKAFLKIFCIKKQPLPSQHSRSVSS
Sequence of D2 dopamine receptors (P14416 whole entry): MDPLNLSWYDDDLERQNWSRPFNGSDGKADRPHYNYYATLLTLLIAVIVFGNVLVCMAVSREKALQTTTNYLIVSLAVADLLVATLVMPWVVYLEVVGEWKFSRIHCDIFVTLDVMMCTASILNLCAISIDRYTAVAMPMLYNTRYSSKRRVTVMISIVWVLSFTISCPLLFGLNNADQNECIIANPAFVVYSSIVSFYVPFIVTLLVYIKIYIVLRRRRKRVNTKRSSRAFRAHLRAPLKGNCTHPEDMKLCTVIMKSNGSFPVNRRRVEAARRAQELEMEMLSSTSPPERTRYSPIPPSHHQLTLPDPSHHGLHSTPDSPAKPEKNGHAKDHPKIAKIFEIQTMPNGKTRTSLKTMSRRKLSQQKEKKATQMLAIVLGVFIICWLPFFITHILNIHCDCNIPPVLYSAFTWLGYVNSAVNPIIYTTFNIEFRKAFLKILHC

## OCCOCCN1CCN(C2=Nc3ccccc3Sc3ccccc32)CC1 [Quetiapine, quetiapine]
[1]
  Increase in the risk of sedation: 3.7 times

## CN1CCN(C2=Nc3cc(Cl)ccc3Nc3ccccc32)CC1 [Clozapine, reference compound]
[2]
  Basophils: 0.6 ± 0.3%
  ESR: 3.8 ± 0.4 mm/h
  Eosinophils: 1.0 ± 0.5%
  Hemoglobin: 154.6 ± 1.9 g/L
  Ht: 43.3 ± 0.5%
  Lymphocytes: 66.6 ± 2.8%
  MCH: 18.4 ± 0.1 pg
  MCHC: 357.4 ± 1.9 g/L
  MCV: 51.6 ± 0.2 fL
  Metamyelocytes: 0.0 ± 0.0%
  Monocytes: 6.4 ± 0.9%
  Myelocytes: 0.0 ± 0.0%
  Number of circulating neutrophils in peripheral blood versus control group: significant increase in the number of circulating neutrophils
  PLT count: 617.6 ± 43.2 10^9/l
  Plasma cells: 0.0 ± 0.0%
  RBC count: 8.39 ± 0.06 10^12/l
  Rt: 80.8 ± 4.1 10^9/l
  Segmented neutrophils: 21.2 ± 2.0%
  Stab neutrophiles: 4.6 ± 0.7 %
  WBC count: 11.6 ± 1.1 10^9/l
[3]
  Inhibition of twitches induced by 5-OT: most evident inhibition of twitches
[4]; human, in vivo
  Patients resistant to typical neuroleptics in whom positive symptoms are weakened: 30-60%
[4]; long-term use
  Patients with treatment-resistant schizophrenia whose condition improves: 60%
[1]
  Increase in the risk of sedation: 8.8 times
[5]; oral 1, 5 and 10 mg/kg
  Sedation: total distance traveled by animals: significantly reduced

## Clc1ccc2c(c1)N=C(N1CCNCC1)c1ccccc1N2 [Desmethylclozapine, N-desmethylclozapine, reference compound]
H1 receptor
  IC50: 15 nM
H4 receptor
  EC50: 2100 nM
D2 dopamine receptors
  Kb: 52 nM
D4 dopamine receptors
  Kb: 190 nM
  Therapeutic window (Kb, D2/Kb, D4): 0.27

## Fc1cc2c(cc1Cl)N=C(N1CCNCC1)c1ccccc1N2 [Desmethylfluoroclozapine, 11-(piperazine-1-yl)-7-fluoro-8-chloro-5H-dibenzo[b,e][1,4]diazepine]
[2]
  Basophils: 0.6 ± 0.3%
  ESR: 4.2 ± 0.4 mm/h
  Eosinophils: 1.0 ± 0.5%
  Hemoglobin: 153.4 ± 2.4 g/L
  Ht: 42.5 ± 0.5%
  Lymphocytes: 66.6 ± 2.8%
  MCH: 18.4 ± 0.1 pg
  MCHC: 360.8 ± 2.2 g/L
  MCV: 50.9 ± 0.2 fL
  Metamyelocytes: 0.0 ± 0.0%
  Monocytes: 6.2 ± 1.0%
  Myelocytes: 0.0 ± 0.0%
  Number of circulating neutrophils in peripheral blood versus control group: did not differ so much different from that of the control group
  PLT count: 653.4 ± 29.8 10^9/l
  Plasma cells: 0.0 ± 0.0%
  RBC count: 8.35 ± 0.07 10^12/l
  Rt: 75.6 ± 3.1 10^9/l
  Segmented neutrophils: 21.4 ± 1.7%
  Stab neutrophiles: 4.2 ± 0.4%
  WBC count: 11.7 ± 0.9 10^9/l
H1 receptor
  IC50: 61 nM
H4 receptor
  EC50: 2000 nM
M4 muscarinic receptor; M4, agonism
  Activating concentration relative to that of norclozapine: 30 times
M4 muscarinic receptor; M4, agonism set-up
  EC50: 3200 nM
M4 muscarinic receptor; M4, antagonism set-up
  IC50: > 10000 nM
D2 dopamine receptors
  Kb: 550 nM
D4 dopamine receptors
  Kb: 350 nM
  Therapeutic window (Kb, D2/Kb, D4): 1.6
M1 receptors
  Functional response on M1 receptor (agonism): is an agonist and causes a significant response in the therapeutic concentration range
[6]
  Activity in relation to adrenergic receptors: relatively weak activity
[5]; oral, dose of 10 mg/kg
  Sedation: decrease in motor activity: negligible decrease in motor activity
[7]
  Concentrations of parent and metabolite in the brain: consistent
